Test results: PubChem BioAssay AID1919015 (Molecular Pharmacology Branch, DTP, NCI, 2023)

System: OVCAR-5 complex spheroids with HUVEC/MSC, viability, % test/control
Assay: Anticancer human tumor OVCAR-5 cell line growth inhibition [AhR];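 note: spheroids exposed to compounds for 7 days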;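 for viability, T/C: 100% = DMSO vehicle control wells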
Conditions: for IC50: curve of first compound; for viability, T/C: stronger effect = lower value
Source text: Multicellular complex tumor spheroid response to aryl hydrocarbon receptor antagonists in combination with a variety of drugs and investigational agents in selected tumor cell lines
The current study was undertaken to assess response to aryl hydrocarbon receptor antagonists in combination with standard-of-care drugs and investigational agents in solid tumor complex spheroid models. Complex spheroids include a stromal component modeled by human endothelial cells (HUVEC) and fibroblasts modeled by human mesenchymal stem cells (MSCs). The concentration ranges selected for each drug and investigational agent were based upon clinically achievable concentrations if the clinical Cmax of the agent was known.
Compounds. The drugs and investigational agents: BAY 2416964 (NSC825713), GNF351 (NSC835774), CH-223191 (NSC835775), CPI-455 (NSC825282), aza-TdCyd (NSC777586), decitabine (NSC127716), belinostat (NSC758774), entinostat (NSC756642), pevonedistat (NSC761192), tazemetostat (NSC777109), talazoparib (NSC765396), olaparib (NSC753686), selinexor (NSC780203), nedisertib (M3814, NSC802822), bortezomib (NSC756655), venetoclax (NSC766270), doxorubicin (NSC123127), elimusertib (BAY189344, NSC800525), ceralasertib (AZD6738, NSC777638), TAK-243 (NSC785004), alisertib (NSC759677), etoposide (NSC141540), topotecan (NSC609699), eribulin (NSC707389), gemcitabine (NSC613327), carboplatin (NSC241240), cisplatin (NSC119875), and SN-38 (NSC673596) were obtained from the National Cancer Institute (NCI) Developmental Therapeutics Program Chemical Repository (32). The FDA-approved anticancer drug set is available from the Developmental Therapeutics Program at https://dtp.cancer.gov/organization/dscb/obtaining/available plates.htm. […] The stock solutions were prepared in dimethyl sulfoxide (DMSO, Sigma-Aldrich, St. Louis, MO, cat. D2650), except for the platinum compounds which were prepared in saline (Quality Biological, Gaithersburg, MD, cat. 114-055-101), at 800-fold the tested concentration and stored at -70 degrees C prior to their use. All drugs and investigational agents were tested over a range starting from a high concentration at or near the clinical Cmax and decreasing in half-log increments. If the clinical Cmax for an agent had not been determined, the highest concentration tested was 10 microM (Table 1).
Cell Culture. All cells were maintained in an incubator at 37 degrees C and 5% CO2 with 95% humidity. The PDC lines were cultured according to standard operating procedures established by the NCI PDMR (https://pdmr.cancer.gov). Briefly, all PDCs were thawed and cultured in Matrigel-coated flasks prepared with a working solution of 1X Ham's F-12 nutrient mix, without supplementation (Invitrogen, Waltham, MA, cat. 11765054), 100 U/mL penicillin-streptomycin (Invitrogen, cat. 15140122), and 2.5% Matrigel (Corning Inc., Corning, NY, cat. 354248) for the first three passages. All PDCs were cultured in complete DMEM/F-12 media containing advanced DMEM/F-12 (Invitrogen, cat. 12634028), 4.9% defined fetal bovine serum, heat inactivated (HyClone Laboratories Inc., Logan, UT, cat. SH30070.03HI), 389 ng/mL hydrocortisone (Sigma-Aldrich, cat. H4001), 9.7 ng/mL human EGF recombinant protein (Invitrogen, cat. PHG0313), 23.4 microg/mL adenine (Sigma-Aldrich, cat. A2786), 97.3 U/mL penicillin-streptomycin (Invitrogen, cat. 15140122), 1.9 mM L-glutamine (Invitrogen, cat. 25030081), and 9.7 microM Y-27632 dihydrochloride (Tocris Bioscience, Bristol, United Kingdom, cat. 1254). The PDCs were cultured in complete DMEM/F12 media without 10 microM Y-27632 dihydrochloride for at least two passages prior to the screen. The established cell lines NCI-H1341 and […] were cultured in DMEM/F-12, HEPES (Invitrogen, cat. 11330032), 5% defined fetal bovine serum (HyClone Laboratories Inc., cat. SH30070.03), ITS premix universal culture supplement [insulin (5 microg/mL), transferrin (5 microg/mL), and selenious acid (5 ng/mL)] […]

Compound `CC[C@@]1(O)C(=O)OCc2c1cc1n(c2=O)Cc2cc3c(CN(C)C)c(O)ccc3nc2-1` + CC(CO)NC(=O)c1cc(-c2ccc(Cl)cc2)nn(-c2cnn(C)c2)c1=O has an IC50 (second compound 0.1 µM) greater than 100 nM, an IC50 (second compound 0.316 µM) greater than 100 nM and an IC50 (second compound 1 µM) greater than 100 nM. It also gave an IC50 (second compound 3.16 µM) greater than 100 nM, an IC50 (second compound 10 µM) greater than 100 nM and a viability, T/C (second compound 0.1 µM, first compound 0.000316 µM) of 112%. It also gave a viability, T/C (second compound 0.1 µM, first compound 0.001 µM) of 105%, a viability, T/C (second compound 0.1 µM, first compound 0.00316 µM) of 105% and a viability, T/C (second compound 0.1 µM, first compound 0.01 µM) of 94.9%. For the same compound, the viability, T/C (second compound 0.1 µM, first compound 0.0316 µM) was 61.9%, the viability, T/C (second compound 0.1 µM, first compound 0.1 µM) was 50.9% and the viability, T/C (second compound 0.316 µM, first compound 0.000316 µM) was 111%. The viability, T/C (second compound 0.316 µM, first compound 0.001 µM) was 110%, the viability, T/C (second compound 0.316 µM, first compound 0.00316 µM) was 106% and the viability, T/C (second compound 0.316 µM, first compound 0.01 µM) was 99.5%. For the same compound, the viability, T/C (second compound 0.316 µM, first compound 0.0316 µM) was 59%, the viability, T/C (second compound 0.316 µM, first compound 0.1 µM) was 54.2% and the viability, T/C (second compound 1 µM, first compound 0.000316 µM) was 119%. The viability, T/C (second compound 1 µM, first compound 0.001 µM) was 119%, the viability, T/C (second compound 1 µM, first compound 0.00316 µM) was 112% and the viability, T/C (second compound 1 µM, first compound 0.01 µM) was 107%. The viability, T/C (second compound 1 µM, first compound 0.0316 µM) was 59%, the viability, T/C (second compound 1 µM, first compound 0.1 µM) was 56.4% and the viability, T/C (second compound 3.16 µM, first compound 0.000316 µM) was 100%. For the same compound, the viability, T/C (second compound 3.16 µM, first compound 0.001 µM) was 102%, the viability, T/C (second compound 3.16 µM, first compound 0.00316 µM) was 105% and the viability, T/C (second compound 3.16 µM, first compound 0.01 µM) was 93.9%. It also gave a viability, T/C (second compound 3.16 µM, first compound 0.0316 µM) of 52.9%, a viability, T/C (second compound 3.16 µM, first compound 0.1 µM) of 55.4% and a viability, T/C (second compound 10 µM, first compound 0.000316 µM) of 99.9%. It also gave a viability, T/C (second compound 10 µM, first compound 0.001 µM) of 103%, a viability, T/C (second compound 10 µM, first compound 0.00316 µM) of 100% and a viability, T/C (second compound 10 µM, first compound 0.01 µM) of 87.4%. The viability, T/C (second compound 10 µM, first compound 0.0316 µM) was 54.9% and the viability, T/C (second compound 10 µM, first compound 0.1 µM) was 62.8%.
